pEC50, pIC50: −log10 of the molar value. Read-outs that look alike come from different tables or passages of the source.

Series [1] concerns the target LEDGF/p75-HIV-1 integrase interaction (Human immunodeficiency virus type 1 group M subtype B (isolate HXB2) (HIV-1), UniProt P04585). Nature of the series: AlphaScreen assay of LEDGF-integrase interaction inhibition. The format is binding. Summed up:
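Compounds (0.1 up to 100 μM) pre-incubated 30 min at 4° C. with 300 nM His6-integrase in pH 7.4 Tris buffer, then 100 nM flag-LEDGF/p75 added for 1 h at 4° C. Ni-chelate acceptor and anti-flag donor beads (20 μg/ml each) were incubated 1 h at 30° C. before reading AlphaScreen emission.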
Background: Bead proximity is the source of the signal in Alpha formats.

The subject of series [2] is HIV-1 (IIIB), HIV-1 (NL4.3). Kind of series: microbe, parasite or virus in culture. The format is cell-based. The note with it: for pEC50: Human immunodeficiency virus 1, IIIB, MT4, MT-4 cells, 50% protection against HIV-induced cytopathogenic effect, MTT; for SI: selectivity index, ratio of CC50 to EC50. Put shortly: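 MT-4 cells infected with HIV-1 IIIB or NL4.3; protection from virus-induced cytopathic effect measured by MTT reduction, OD 540 nm. EC50 is the dose giving 50% protection; CC50 is the concentration cutting mock-infected absorbance by 50%; SI = CC50/EC50.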

A short description of series [3]: Cytotoxicity in mock-infected MT-4 cells (MTT). The class given is cell-based. Conditions: human, 50% cytotoxic concentration. Put shortly: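 MT-4 cells (HTLV-1-transformed T4 line) in RPMI 1640 with 10% FCS, mock-infected alongside HIV-infected cultures. Viability read by in situ MTT reduction, OD 540 nm. CC50 is the compound concentration cutting mock-infected control absorbance by 50%.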

The mark [4] stands for this setting: His6-tagged integrase 300 nM, flag-LEDGF/p75 100 nM, read-out: Alphascreen IC50.

Consider `CCCC(C(=O)O)c1c(C)nc2sc3c(c2c1-c1ccc(Cl)c(Cl)c1)CCCC3` (stereo not drawn) [Cpd 139, 2-[2-Methyl-4-(3,4-dichlorophenyl)-5,6,7,8-tetrahydro[1]benzothieno[2,3-b]pyridin-3-yl]pentanoic acid], for which, in series [1] (setting [4]), the pIC50 (usually the negative decadic logarithm of the IC50, by convention in mol/L) is 5.03. Moreover, in series [2], the pEC50 – broadly, the negative decadic logarithm of the EC50, by convention in mol/L – was 5.27 and the SI was determined as 10. Further, the midpoint of cytotoxicity in series [3], the CC50, lay at 55.1 µM.
On the same counts, the results for `CCCC(C(=O)O)c1c(CC)nc2sc3c(c2c1-c1ccc(C)cc1)CCCC3` (stereo not drawn) [Cpd 181, 2-[2-ethyl-4-(p-tolyl)-5,6,7,8-tetrahydro[1]benzothieno[2,3-b]pyridin-3-yl]pentanoic acid] are 5.09, 5.54, 28 and 81 µM.
As for `CCCC(C(=O)O)c1c(C)nc2sc(C)c(CC)c2c1-c1ccc(C)cc1` (stereo not drawn) [Cpd 109, 2-(3-Ethyl-2,6-dimethyl-4-p-tolylthieno[2,3-b]pyridin-5-yl)pentanoic acid], the pIC50 in series [1] (setting [4]) was 5.17. In series [2], the pEC50 was 5.65 and the SI was 26. For the same compound, in series [3], the CC50 (in general, the concentration at which the toxic effect on the cells reaches its halfway point) was 57.9 µM.
Take `CCCC(c1nnn[nH]1)c1c(C)nc2sc3c(c2c1-c1ccc(C)cc1)CCCC3` (stereo not drawn) [Cpd 175, 2-Methyl-4-(p-tolyl)-3-[1-(1H-tetrazol-5-yl)butyl]-5,6,7,8-tetrahydro[1]benzothieno[2,3-b]pyridine]: in series [1] (setting [4]), the pIC50 is > 6.00. In addition, in series [2], the pEC50 is 5.05 and the SI was determined as 9. The compound also displayed a CC50 in series [3] of 79.2 µM.
As to `CCCC(C(=O)O)c1c(C)nc2sc3c(c2c1-c1ccc(C)cc1O)CCCC3.N` (stereo not drawn) [Cpd 161, 2-[2-Methyl-4-(2-hydroxy-4-methylphenyl)-5,6,7,8-tetrahydro[1]benzothieno[2,3-b]pyridin-3-yl]pentanoate ammonium salt], the pIC50 in series [1] is 7.26. Also, in series [2], the pEC50 is 6.83 and the SI worked out at 1061. Further, the CC50 in series [3] turned out to be 157 µM.
In the case of `CCCC(C(=O)O)c1c(C)nc2sc3c(c2c1-c1cccc(C)c1)CCCC3` (stereo not drawn) [Cpd 141, 2-[2-Methyl-4-(m-tolyl)-5,6,7,8-tetrahydro[1]benzothieno[2,3-b]pyridin-3-yl]pentanoic acid], the pIC50 in series [1] (setting [4]) is 4.63. In series [2], the pEC50 is 4.83 and the SI worked out at 4. In addition, it took 55.5 µM to reach half-maximal cytotoxicity in series [3] (CC50).
Take `CCCC(C(N)=O)c1c(C)nc2sc3c(c2c1-c1ccc(C)cc1)CCCC3` (stereo not drawn) [Cpd 167, 2-[2-Methyl-4-p-tolyl-5,6,7,8-tetrahydro[1]benzothieno[2,3-b]pyridin-3-yl]pentanamide]: the pIC50 in series [1] (setting [4]) was 4.20. In addition, the pEC50 in series [2] was < 4.58. Besides, the CC50 in series [3] is 26.1 µM.
Turning to `CCCC(C(=O)O)c1c(C)nc2sc3ccccc3c2c1-c1ccc(C)cc1` (stereo not drawn) [Cpd 120, 2-[2-Methyl-4-p-tolylbenzo[4,5]thieno[2,3-b]pyridin-3-yl]pentanoic acid], in series [1] (setting [4]), the pIC50 was 5.57. In series [2], the pEC50 was 5.82 and the SI stood at 67. In series [3], this compound returned a CC50 of 101 µM.
The matching figures for `C#CCC(C(=O)O)c1c(C)nc2sc3c(c2c1-c1ccc(C)cc1)CCCC3` (stereo not drawn) [Cpd 159, 2-[2-Methyl-4-(p-tolyl)-5,6,7,8-tetrahydro[1]benzothieno[2,3-b]pyridin-3-yl]-pent-4-yn-oic acid]: 4.88, 5.12, 13 and 99.5 µM.
Turning to `Cc1ccc(-c2c(CC(=O)O)c(C)nc3sc4c(c23)CCC4)cc1` [Cpd 101, [2-Methyl-4-p-tolyl-6,7-dihydro-5H-cyclopenta[4,5]thieno[2,3-b]pyridin-3-yl]acetic acid], the pIC50 in series [1] (setting [4]) is 4.26. Also, in series [2], the pEC50 is 4.19 and the SI is >2. Also, in series [3], the CC50 is > 125 µM.
Take `C=C(C(=O)O)c1c(C)nc2sc3c(c2c1-c1ccc(C)cc1)CCC3` [Cpd 124, 2-[2-methyl-4-p-tolyl-6,7-dihydro-5H-cyclopenta[4,5]thieno[2,3-b]pyridin-3-yl]acrylic acid]: the pIC50 in series [1] (setting [4]) is 4.39. Moreover, the pEC50 in series [2] is < 3.93. This compound also had a CC50 in series [3] of 117 µM.

For the origin of these results see patent US8785638B2, “Thieno [2, 3-B] pyridine derivatives as viral replication inhibitors” (Katholieke Universiteit Leuven, priority 2009, dated 2014).
